Experimental findings from patent publication US9931327B2, “Derivatives of 1-phenyl-2-pyridinyl alkyl alcohols as phosphodiesterase inhibitors” (Chiesi Farmaceutici S.p.A., priority 2011, dated 2018) are described below.

In the first assay the test system is LPS-induced TNF-α release in peripheral blood mononuclear cells (PBMCs). Put plainly: In vitro determination of PDE4 inhibitory activity in the PBMCs assay (LPS-induced TNF-α release). It is filed as cell-based, human. The conditions noted are these: Homo sapiens, PBMC, 18 h, read-out: PDE4 inhibition (IC50, 50% inhibition of LPS-induced TNF-α release). The protocol: The assay, which is based on the known inhibitory activity exerted by PDE4 inhibitors on the lipopolyshaccarides (LPS)-induced tumour necrosis factor-alpha (TNF-α release in peripheral blood mononuclear cells (PBMCs), was performed according to a method previously described (Hatzelmann A et al., J. Pharmacol. Exp. Ther., 2001; 297:267-279; and Draheim R et al., J. Pharmacol. Exp. Ther., 2004; 308:555-563, which are incorporated herein by reference in their entireties). Cryopreserved human PBMCs, (100 l/well) were incubated in 96-well plates (10^5 cells/well), for 30 minutes, in the presence or absence (50 microl) of the test compounds whose concentrations ranged from 10^−12 M to 10^−6 M or from […] to 10^−7 M. Subsequently, LPS (3 ng/ml) was added.
After 18 hours of incubation at 37° C. in a humidified incubator under an atmosphere of 95% air and 5% CO2, culture medium was collected and TNF-α measured by ELISA. The results of the tested compounds, representatives of the invention, expressed as mean±95% confidence limits of the molar concentration of the test compound producing 50% inhibition of LPS-induced TNF-α release (IC50) are shown in the following Table: […]
Regarding `Nc1ccc(S(=O)(=O)N2CCS[C@@H]2C(=O)O[C@@H](Cc2c(Cl)c[n+]([O-])cc2Cl)c2ccc(OC(F)F)c(OCC3CC3)c2)cc1` [Compound 151, 4-((S)-2-((R)-3-(4-aminophenylsulfonyl)thiazolidine-2-carbonyloxy)-2-(3-(cyclopropylmethoxy)-4-(difluoromethoxy)phenyl)ethyl)-3,5-dichloropyridine 1-oxide], the IC50 is 100 to 1000 pM.

The same assay, now with this note: PBMC; human PBMCs, LPS 3 ng/ml, 18 hours, TNF-α by ELISA; read-out: PDE4 inhibition (IC50, 50% inhibition of LPS-induced TNF-α release).
Take `COc1ccc(S(=O)(=O)N2CCSC2C(=O)O[C@@H](Cc2c(Cl)c[n+]([O-])cc2Cl)c2ccc(OC(F)F)c(OCC3CC3)c2)cc1C(=O)N(C)C` (stereo partly drawn) [Compound 123, 3,5-dichloro-4-((2S)-2-(3-(cyclopropylmethoxy)-4-(difluoromethoxy)phenyl)-2-(3-(3-(dimethylcarbamoyl)-4-methoxyphenylsulfonyl)thiazolidine-2-carbonyloxy)ethyl)pyridine 1-oxide]: the IC50 is below 100 pM. Same read-out and setting: next, `Cc1noc(C)c1S(=O)(=O)N1CCSC1C(=O)O[C@@H](Cc1c(Cl)c[n+]([O-])cc1Cl)c1ccc(OC(F)F)c(OCC2CC2)c1` (stereo partly drawn) [Compound 76, 3,5-dichloro-4-((2S)-2-(3-(cyclopropylmethoxy)-4-(difluoromethoxy)phenyl)-2-(3-(3,5-dimethylisoxazol-4-ylsulfonyl)thiazolidine-2-carbonyloxy)ethyl)pyridine 1-oxide]: 100 to 1000 pM.

Turning to `CN(C)C(=O)c1cccc(CC(=O)N2CCS[C@H]2C(=O)O[C@@H](Cc2c(Cl)c[n+]([O-])cc2Cl)c2ccc(OC(F)F)c(OCC3CC3)c2)c1` [Compound 198, 3,5-dichloro-4-((S)-2-(3-(cyclopropylmethoxy)-4-(difluoro-methoxy)phenyl)-2-((S)-3-(2-(3-(dimethylcarbamoyl)phenyl)acetyl)-thiazolidine-2-carbonyloxy)ethyl)pyridine 1-oxide], the IC50 is 100 to 1000 pM. In the case of `COc1ccc(C(=O)N2CCC[C@H]2C(=O)O[C@@H](Cc2c(Cl)c[n+]([O-])cc2Cl)c2ccc(OC(F)F)c(OCC3CC3)c2)cc1OS(C)(=O)=O` [Compound 30, 3,5-dichloro-4-((S)-2-(3-(cyclopropylmethoxy)-4-(difluoromethoxy)phenyl)-2-((S)-1-(4-methoxy-3-(methylsulfonyloxy)benzoyl)pyrrolidine-2-carbonyloxy)ethyl)pyridine-1-oxide], the IC50 fell in the range of 1000 to 10000 pM. The same measure, in the same setting: next, `CN(C)S(=O)(=O)c1cccc(S(=O)(=O)N2CCCC2C(=O)O[C@@H](Cc2c(Cl)c[n+]([O-])cc2Cl)c2ccc(OC(F)F)c(OCC3CC3)c2)c1` (stereo in doubt) [Compound 238, 3,5-dichloro-4-((S)-2-(3-(cyclopropylmethoxy)-4-(difluoromethoxy)phenyl)-2-((S)-1-(3-(N,N-dimethylsulfamoyl)phenylsulfonyl)pyrrolidine-2-carbonyloxy)ethyl)pyridine 1-oxide]: 100 to 1000 pM; `CN1CCOc2ccc(S(=O)(=O)N3CSC[C@H]3C(=O)O[C@@H](Cc3c(Cl)c[n+]([O-])cc3Cl)c3ccc(OC(F)F)c(OCC4CC4)c3)cc21` [Compound 252, 3,5-dichloro-4-((S)-2-(3-(cyclopropylmethoxy)-4-(difluoromethoxy)phenyl)-2-((R)-3-(4-methyl-3,4-dihydro-2H-benzo[b][1,4]oxazin-6-ylsulfonyl)thiazolidine-4-carbonyloxy)ethyl)pyridine 1-oxide]: below 100 pM. `O=C(O[C@@H](Cc1c(Cl)c[n+]([O-])cc1Cl)c1ccc(OC(F)F)c(OCC2CC2)c1)[C@@H]1SCCN1S(=O)(=O)c1cccnc1` [Compound 88, 3,5-dichloro-4-((S)-2-(3-(cyclopropylmethoxy)-4-(difluoromethoxy)phenyl)-2-((S)-3-(pyridin-3-ylsulfonyl)thiazolidine-2-carbonyloxy)ethyl)pyridine 1-oxide]: the IC50 is below 100 pM. On the same count and under the same terms, next, `NS(=O)(=O)c1cccc(S(=O)(=O)N2CCSC2C(=O)O[C@@H](Cc2c(Cl)c[n+]([O-])cc2Cl)c2ccc(OC(F)F)c(OCC3CC3)c2)c1` (stereo partly drawn) [Compound 59, 3,5-dichloro-4-((2S)-2-(3-(cyclopropylmethoxy)-4-(difluoromethoxy)phenyl)-2-(3-(3-sulfamoylphenylsulfonyl)thiazolidine-2-carbonyloxy)ethyl)pyridine 1-oxide]: below 100 pM.

For `O=C(O[C@@H](Cc1c(Cl)c[n+]([O-])cc1Cl)c1ccc(OC(F)F)c(OCC2CC2)c1)C1SCCN1S(=O)(=O)c1ccccc1Cl` (stereo partly drawn) [Compound 70, 3,5-dichloro-4-((2S)-2-(3-(2-chlorophenylsulfonyl)thiazolidine-2-carbonyloxy)-2-(3-(cyclopropylmethoxy)-4-(difluoromethoxy)phenyl)ethyl)pyridine 1-oxide], the IC50 is 100 to 1000 pM.

Turning to `O=C(O[C@@H](Cc1c(Cl)c[n+]([O-])cc1Cl)c1ccc(OC(F)F)c(OCC2CC2)c1)[C@@H]1CCCCN1S(=O)(=O)c1cccnc1` [Compound 99, 3,5-dichloro-4-((S)-2-(3-(cyclopropylmethoxy)-4-(difluoromethoxy)phenyl)-2-((S)-1-(pyridin-3-ylsulfonyl)piperidine-2-carbonyloxy)ethyl)pyridine 1-oxide], the IC50 lay within 1000 to 10000 pM.

In the case of `NC(=O)c1ccc(C(=O)N2CCS[C@H]2C(=O)O[C@@H](Cc2c(Cl)c[n+]([O-])cc2Cl)c2ccc(OC(F)F)c(OCC3CC3)c2)cc1` [Compound 37, 4-((S)-2-((S)-3-(4-carbamoylbenzoyl)thiazolidine-2-carbonyloxy)-2-(3-(cyclopropylmethoxy)-4-(difluoromethoxy)phenyl)ethyl)-3,5-dichloropyridine 1-oxide], the IC50 is below 100 pM. The same measure, in the same setting: for `CC(=O)c1cccc(S(=O)(=O)N2CCS[C@H]2C(=O)O[C@@H](Cc2c(Cl)c[n+]([O-])cc2Cl)c2ccc(OC(F)F)c(OCC3CC3)c2)c1` [Compound 117, 4-((S)-2-((S)-3-(3-acetylphenylsulfonyl)thiazolidine-2-carbonyloxy)-2-(3-(cyclopropylmethoxy)-4-(difluoromethoxy)phenyl)ethyl)-3,5-dichloropyridine 1-oxide] the value was 100 to 1000 pM; for `O=C(O[C@@H](Cc1c(Cl)c[n+]([O-])cc1Cl)c1ccc(OC(F)F)c(OCC2CC2)c1)[C@@H]1SCCN1C(=O)c1ccc(N2CCS(=O)(=O)CC2)cc1` [Compound 36], 100 to 1000 pM. Still for that read-out and setting: next, `CS(=O)(=O)c1ccc(S(=O)(=O)N2CCSC2C(=O)O[C@@H](Cc2c(Cl)c[n+]([O-])cc2Cl)c2ccc(OC(F)F)c(OCC3CC3)c2)cc1` (stereo partly drawn) [Compound 92, 3,5-dichloro-4-((2S)-2-(3-(cyclopropylmethoxy)-4-(difluoromethoxy)phenyl)-2-(3-(4-(methylsulfonyl)phenylsulfonyl)thiazolidine-2-carbonyloxy)ethyl)pyridine 1-oxide]: below 100 pM. Same read-out and setting: next, `N#Cc1ccc(S(=O)(=O)N2CCS[C@H]2C(=O)O[C@@H](Cc2c(Cl)c[n+]([O-])cc2Cl)c2ccc(OC(F)F)c(OCC3CC3)c2)cc1` [Compound 206, 3,5-dichloro-4-((S)-2-((S)-3-(4-cyanophenylsulfonyl)thiazolidine-2-carbonyloxy)-2-(3-(cyclopropylmethoxy)-4-(difluoromethoxy)phenyl)ethyl)pyridine 1-oxide]: below 100 pM. For the compound `NS(=O)(=O)c1cccc(S(=O)(=O)N2CCS[C@H]2C(=O)O[C@@H](Cc2c(Cl)c[n+]([O-])cc2Cl)c2ccc(OC(F)F)c(OCC3CC3)c2)c1` [Compound 91, 3,5-dichloro-4-((S)-2-(3-(cyclopropylmethoxy)-4-(difluoromethoxy)phenyl)-2-((S)-3-(3-sulfamoylphenylsulfonyl)thiazolidine-2-carbonyloxy)ethyl)pyridine 1-oxide], the IC50 is below 100 pM. The same measure, in the same setting: next, `COc1cc([C@H](Cc2c(Cl)c[n+]([O-])cc2Cl)OC(=O)[C@@H]2SCCN2S(=O)(=O)c2cccc(C(=O)N(C)C)c2)ccc1OC(F)F` [Compound 299, 3,5-dichloro-4-((S)-2-(4-(difluoromethoxy)-3-methoxyphenyl)-2-((S)-3-(3-(dimethylcarbamoyl)phenylsulfonyl)thiazolidine-2-carbonyloxy)ethyl)pyridine 1-oxide]: below 100 pM; `COc1ccc(C(=O)N2CCSC2C(=O)O[C@@H](Cc2c(Cl)c[n+]([O-])cc2Cl)c2ccc(OC(F)F)c(OCC3CC3)c2)cc1S(=O)(=O)N(C)C` (stereo partly drawn) [Compound 32, 3,5-dichloro-4-((2S)-2-(3-(cyclopropylmethoxy)-4-(difluoromethoxy)phenyl)-2-(3-(3-(N,N-dimethylsulfamoyl)-4-methoxybenzoyl)thiazolidine-2-carbonyloxy)ethyl)pyridine 1-oxide]: 100 to 1000 pM. Still for that read-out and setting: for `CN1CCN(C(=O)c2cccc(S(=O)(=O)N3CCSC3C(=O)O[C@@H](Cc3c(Cl)c[n+]([O-])cc3Cl)c3ccc(OC(F)F)c(OCC4CC4)c3)c2)CC1` (stereo partly drawn) [Compound 130, 3,5-dichloro-4-((2S)-2-(3-(cyclopropylmethoxy)-4-(difluoromethoxy)phenyl)-2-(3-(3-(4-methylpiperazine-1-carbonyl)phenylsulfonyl)thiazolidine-2-carbonyloxy)ethyl)pyridine 1-oxide] the value was below 100 pM.

Staying with this assay, now noted: PBMC; human PBMCs, LPS 3 ng/ml, 18 hours; compounds of formula (II); read-out: PDE4 inhibition (IC50, 50% inhibition of LPS-induced TNF-α release).
Take `O=C(O[C@@H](Cc1c(Cl)c[n+]([O-])cc1Cl)c1ccc(OC(F)F)c(OCC2CC2)c1)[C@H]1CCCCN1` [Compound 9]: the IC50 was 1000 to 10000 pM.

What is called IC50 is the concentration that inhibits the measured activity by half.
